ChEMBL document CHEMBL1201862, “PubChem BioAssay data set” (2004)
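Tested at 5 concentrations; 48 h exposure; 96-well plates; endpoints linearly interpolated, else capped at highest concentration. GI50 marks 50% less growth.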 The source made the active and inactive calls. Cut-off read from the data, not from the text of the source: active = GI50 up to about 1.1 µM and inactive = higher.

Columns and labels:
Test in all cases: NCI-60 cell line screen, 48 h
LXFL 529 = test system: LXFL 529
IGROV-1 = test system: IGROV-1
EKVX = test system: EKVX
SN12C = test system: SN12C
T47D = test system: T47D
DMS-114 = test system: DMS-114
NCI-H226 = test system: NCI-H226
XF498 = test system: XF498
PC-3 = test system: PC-3
KM12 = test system: KM12
MOLT-4 = test system: MOLT-4
SK-MEL-28 = test system: SK-MEL-28
CAKI-1 = test system: CAKI-1
OVCAR-8 = test system: OVCAR-8
HL-60 = test system: HL-60
SR = test system: SR
MDA-MB-435 = test system: MDA-MB-435
HT-29 = test system: HT-29
M14 = test system: M14
M19-MEL = test system: M19-MEL
CCRF-CEM = test system: CCRF-CEM
SF-295 = test system: SF-295
RXF 393 = test system: RXF 393
ACHN = test system: ACHN
SNB-19 = test system: SNB-19
MDA-N = test system: MDA-N
RPMI-8226 = test system: RPMI-8226
U-251 = test system: U-251
NCI-H460 = test system: NCI-H460
SK-MEL-5 = test system: SK-MEL-5
OVCAR-4 = test system: OVCAR-4
HOP-92 = test system: HOP-92
Malme-3M = test system: Malme-3M
NCI/ADR-RES = test system: NCI/ADR-RES
Hs-578T = test system: Hs-578T
DU-145 = test system: DU-145
HOP-62 = test system: HOP-62
OVCAR-5 = test system: OVCAR-5
SF-268 = test system: SF-268
MCF7 = test system: MCF7
TK-10 = test system: TK-10
HCT-15 = test system: HCT-15
HCC 2998 = test system: HCC 2998
DMS-273 = test system: DMS-273
NCI-H23 = test system: NCI-H23
SK-OV-3 = test system: SK-OV-3
NCI-H522 = test system: NCI-H522
HCT-116 = test system: HCT-116
SW-620 = test system: SW-620
LOX IMVI = test system: LOX IMVI
UACC-257 = test system: UACC-257
SK-MEL-2 = test system: SK-MEL-2
HOP-18 = test system: HOP-18
SF-539 = test system: SF-539
A549 = test system: A549
OVCAR-3 = test system: OVCAR-3
DLD-1 = test system: DLD-1
BT-549 = test system: BT-549
786-0 = test system: 786-0
A498 = test system: A498
UO-31 = test system: UO-31
SNB-75 = test system: SNB-75
MDA-MB-231 = test system: MDA-MB-231
UACC-62 = test system: UACC-62
COLO 205 = test system: COLO 205
K562 = test system: K562

## COc1ccc(N2C(=O)[C@H]3[C@H]4CC(C(C)(C)C)CC[C@H]4c4c(n(C)c5ccccc45)[C@H]3C2=O)cc1 (stereo partly specified)
LXFL 529
  GI50: > 100 µM (inactive)
IGROV-1
  GI50: > 100 µM (inactive)
EKVX
  GI50: > 46.5 µM (inactive)
SN12C
  GI50: > 56.2 µM (inactive)
T47D
  GI50: > 100 µM (inactive)
DMS-114
  GI50: > 100 µM (inactive)
NCI-H226
  GI50: > 100 µM (inactive)
XF498
  GI50: > 100 µM (inactive)
PC-3
  GI50: > 100 µM (inactive)
KM12
  GI50: > 10 µM (inactive)
MOLT-4
  GI50: > 100 µM (inactive)
SK-MEL-28
  GI50: > 100 µM (inactive)
CAKI-1
  GI50: > 100 µM (inactive)
OVCAR-8
  GI50: > 100 µM (inactive)
HL-60
  GI50: > 90.6 µM (inactive)
SR
  GI50: > 100 µM (inactive)
MDA-MB-435
  GI50: > 100 µM (inactive)
HT-29
  GI50: > 100 µM (inactive)
M14
  GI50: > 100 µM (inactive)
M19-MEL
  GI50: < 0.01 µM (active)
CCRF-CEM
  GI50: > 100 µM (inactive)
SF-295
  GI50: > 100 µM (inactive)
RXF 393
  GI50: > 23.7 µM (inactive)
ACHN
  GI50: > 100 µM (inactive)
SNB-19
  GI50: > 100 µM (inactive)
MDA-N
  GI50: > 100 µM (inactive)
RPMI-8226
  GI50: > 100 µM (inactive)
U-251
  GI50: > 56.2 µM (inactive)
NCI-H460
  GI50: > 10 µM (inactive)
SK-MEL-5
  GI50: 4.65 µM (inactive)
OVCAR-4
  GI50: > 79.6 µM (inactive)
HOP-92
  GI50: > 100 µM (inactive)
Malme-3M
  GI50: > 100 µM (inactive)
NCI/ADR-RES
  GI50: > 100 µM (inactive)
Hs-578T
  GI50: 56.1 µM (inactive)
DU-145
  GI50: > 100 µM (inactive)
HOP-62
  GI50: > 5.62 µM (inactive)
OVCAR-5
  GI50: > 10 µM (inactive)
SF-268
  GI50: > 100 µM (inactive)
MCF7
  GI50: > 46.5 µM (inactive)
TK-10
  GI50: > 10 µM (inactive)
HCT-15
  GI50: 5.62 µM
HCC 2998
  GI50: 5.62 µM (inactive)
DMS-273
  GI50: > 100 µM (inactive)
NCI-H23
  GI50: > 100 µM (inactive)
SK-OV-3
  GI50: > 100 µM (inactive)
NCI-H522
  GI50: > 10 µM (inactive)
HCT-116
  GI50: > 100 µM (inactive)
SW-620
  GI50: > 100 µM (inactive)
LOX IMVI
  GI50: > 100 µM (inactive)
UACC-257
  GI50: > 100 µM (inactive)
SK-MEL-2
  GI50: > 4.65 µM (inactive)
HOP-18
  GI50: > 100 µM (inactive)
SF-539
  GI50: 32.4 µM (inactive)
A549
  GI50: > 100 µM (inactive)
OVCAR-3
  GI50: > 100 µM (inactive)
DLD-1
  GI50: < 0.01 µM (active)
BT-549
  GI50: > 100 µM (inactive)
786-0
  GI50: > 100 µM (inactive)
A498
  GI50: > 46.5 µM (inactive)
UO-31
  GI50: > 100 µM (inactive)
SNB-75
  GI50: > 87.7 µM (inactive)
MDA-MB-231
  GI50: > 100 µM (inactive)
UACC-62
  GI50: 53.5 µM (inactive)
COLO 205
  GI50: > 100 µM (inactive)
K562
  GI50: > 95.3 µM (inactive)
